Assay results published in patent US20170035742A1, “DURABLE TREATMENT WITH 4-AMINOPYRIDINE IN PATIENTS WITH DEMYELINATION” (Acorda Therapeutics, Inc., priority 2009, published 2017).

Tests used:
[1] = Tissue distribution of 14C-labeled 4-aminopyridine 1 mg/kg p.o. in rats; details: one hour post-dose
Description: In a single-dose study, rats were administered ^14C-labeled 4-aminopyridine (1 mg/kg) p.o. Three animals per time point were sacrificed 1, 3, 8, and 24 hours post-dose. Blood was collected and tissues were excised for determination of radioactivity.

[2] = Single- and repeated-dose toxicity studies; assay type: in vivo; details: after large single doses or repeated lower doses, all species studied
From the text: In single- and repeated-dose toxicity studies, the dosing regimen greatly affected the rate of side effects. […] These clinical signs were not unexpected and represent exaggerated pharmacology of 4-aminopyridine.

Plasma protein binding = assay type: in vitro ADME; details: human
From the text: Measurable levels are present in the saliva.

[3] = Rat i.v. and p.o. pharmacokinetics, 2 mg/kg (M 2001-03); details: AUC(0-∞) p.o. vs i.v.
[4] = system: patients with multiple sclerosis; assay: MS-F203EXT open-label extension study; details: over two years open-label
Description: This extension study (MS-F203EXT) monitored efficacy and safety during open-label treatment of patients from MS-F203. Design/methods: Patients were treated with 10 mg fampridine bid, and were assessed in the clinic at 2, 14, and 26 weeks and every 6 months thereafter. Eligibility criteria included: definite MS; age 18-70; Timed 25-Foot Walk (T25FW) times of 8-45 seconds at screening for MS-F203. Efficacy was analyzed by the proportion of Extension Timed Walk Responders (ETWRs) whose walking was faster during the majority of visits than their fastest off-treatment speed.
MS-F203EXT monitored efficacy and safety during open-label treatment of patients from MS-F203. Patients were treated with 10 mg fampridine bid, and were assessed in the clinic at 2, 14, and 26 weeks and every 6 months thereafter. Eligibility criteria included: definite MS; age 18-70; Timed 25-Foot Walk (T25FW) times of 8-45 seconds at screening for MS-F203. Efficacy was analyzed by the proportion of Extension Timed Walk Responders (ETWRs) whose walking was faster during the majority of visits than their fastest off-treatment speed. […] There are safety assessments, a timed 25 Foot Walk assessment, Clinician and Subject Global Impression at each visit. An EDSS assessment is performed every 2 years.
Timed walk response in the extension study was measured using the Timed 25-Foot Walk (T25W). […]

[5] = Adverse events in controlled clinical studies; assay type: in vivo, human
From the text: In controlled clinical studies involving the use of 4-aminopyridine, the most frequent adverse events by body system occurred in the nervous system, “body as a whole”, and digestive system.
While an increased incidence of such events appears to be moderately dose-related, the susceptibility of individuals is quite variable. As a result of disease pathology, there appears to be potential for more lowering of seizure threshold in people with MS than for people with spinal cord injury; this may result from interaction of the channel-blocking properties of the drug with MS brain pathology in certain individuals.

| Compound | dose accounted for in total [1] [%] | radioactivity in blood, percent of dose [1] [%] | radioactivity in kidney, percent of dose [1] [%] | radioactivity in liver, percent of dose [1] [%] | clinical signs [2] | unbound to plasma proteins (Plasma protein binding) | bioavailability ([3]; female rats) [%] | bioavailability ([3]; male rats) | safety profile [4] | most common nervous system adverse events [5] | most frequently reported event in the digestive system category [5] |
| --- | --- | --- | --- | --- | --- | --- | --- | --- | --- | --- | --- |
| ^14C-4-Aminopyridine | 58.3 | 0.7 | 1.6 | 2.6 | – | – | – | – | – | – | – |
| Nc1ccncc1 [4-aminopyridine] | – | – | – | – | tremors, convulsions, ataxia, dyspnea, dilated pupils, prostration, abnormal vocalization, increased respiration, excess salivation, gait abnormalities, and hyper- and hypo-excitability | 97-99% | ~55 | approximately 66.5% | No new safety issues emerged | Dizziness, insomnia, paresthesia, pain, headache and asthenia | nausea |
